Here are results for one molecule from PMC4941420, “A Rational Approach for the Identification of Non-Hydroxamate HDAC6-Selective Inhibitors” (Scientific Reports, 2016).

Usually IC50 stands for the concentration that inhibits the measured activity by half. In general, inhibition refers to how much of the control response was suppressed.

Series [1] is described as follows: Cytotoxicity XTT, HEK 293. To be noted: human, HEK 293 cells (ATCC CRL-1573), mean ± SD of 3 independent experiments in triplicate, read-out: cytotoxic IC50 HEK 293. It is filed as cell-based. As for the experimental part:
HeLa and HEK 293 cells (ATCC CRL-1573) were cultured as described above and seeded into 96-well plates at 400 cells/well. Test and standard compounds were added to plate wells in triplicate (0.05% DMSO in culture medium) in a range of six concentrations. Following 72 h of incubation, […] of an activated XTT solution was added to the cells (1 mg/mL). The absorbance was measured at 450 nm after 2 h incubation at 37 °C. The growth of the compound-treated cells was compared with the growth of vehicle-treated control cells. IC50 values were calculated with GraphPad Prism 6.0.
(In general: Tetrazolium assays rely on reduction of a dye to a coloured formazan, in cell work by metabolically active cells.)

Another series has as its target T1, HDAC6 (Homo sapiens, UniProt Q9UBN7).
T1 construct: purchased Sigma Aldrich or Reaction Biology Corporation
T1 sequence (Q9UBN7 1-1215): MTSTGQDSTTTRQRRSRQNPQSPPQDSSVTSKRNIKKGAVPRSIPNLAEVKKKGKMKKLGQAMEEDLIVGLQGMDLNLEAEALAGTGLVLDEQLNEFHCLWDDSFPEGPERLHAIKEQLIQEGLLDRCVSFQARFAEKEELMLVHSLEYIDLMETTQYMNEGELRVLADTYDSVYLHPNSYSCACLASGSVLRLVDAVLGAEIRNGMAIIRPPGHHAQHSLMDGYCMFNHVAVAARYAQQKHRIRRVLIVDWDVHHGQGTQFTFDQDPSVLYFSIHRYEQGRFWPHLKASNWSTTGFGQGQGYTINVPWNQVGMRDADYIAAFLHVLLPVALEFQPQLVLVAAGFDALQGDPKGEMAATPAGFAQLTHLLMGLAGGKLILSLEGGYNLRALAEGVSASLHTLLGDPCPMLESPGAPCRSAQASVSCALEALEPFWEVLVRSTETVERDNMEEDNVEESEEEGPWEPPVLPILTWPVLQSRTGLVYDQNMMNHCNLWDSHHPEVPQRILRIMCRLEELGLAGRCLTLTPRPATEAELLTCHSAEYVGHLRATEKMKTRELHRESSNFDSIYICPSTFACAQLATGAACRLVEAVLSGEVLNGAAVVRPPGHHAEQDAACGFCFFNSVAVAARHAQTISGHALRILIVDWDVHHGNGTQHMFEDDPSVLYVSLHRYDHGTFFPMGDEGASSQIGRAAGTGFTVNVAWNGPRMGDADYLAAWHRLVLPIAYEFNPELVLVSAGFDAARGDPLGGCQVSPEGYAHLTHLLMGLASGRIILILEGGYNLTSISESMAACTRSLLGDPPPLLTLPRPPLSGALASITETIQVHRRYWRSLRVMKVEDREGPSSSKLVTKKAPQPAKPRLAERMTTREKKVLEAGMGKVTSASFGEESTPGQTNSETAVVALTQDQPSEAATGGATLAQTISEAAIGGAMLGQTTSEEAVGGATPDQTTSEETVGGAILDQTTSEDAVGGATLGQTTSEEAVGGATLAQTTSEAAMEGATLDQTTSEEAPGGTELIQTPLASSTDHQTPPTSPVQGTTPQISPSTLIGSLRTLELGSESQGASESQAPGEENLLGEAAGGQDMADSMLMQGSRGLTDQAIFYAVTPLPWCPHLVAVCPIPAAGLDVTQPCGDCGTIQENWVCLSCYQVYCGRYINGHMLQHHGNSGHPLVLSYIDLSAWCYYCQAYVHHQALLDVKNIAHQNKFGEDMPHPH
Description: In vitro enzymatic assay HDAC6 (Fluor de Lys). Type of series: biochemical.

A further series has as its target T2, HDAC8 (Homo sapiens, UniProt Q9BY41).
T2 construct: purchased Sigma Aldrich or Reaction Biology Corporation
T2 sequence (Q9BY41 1-377): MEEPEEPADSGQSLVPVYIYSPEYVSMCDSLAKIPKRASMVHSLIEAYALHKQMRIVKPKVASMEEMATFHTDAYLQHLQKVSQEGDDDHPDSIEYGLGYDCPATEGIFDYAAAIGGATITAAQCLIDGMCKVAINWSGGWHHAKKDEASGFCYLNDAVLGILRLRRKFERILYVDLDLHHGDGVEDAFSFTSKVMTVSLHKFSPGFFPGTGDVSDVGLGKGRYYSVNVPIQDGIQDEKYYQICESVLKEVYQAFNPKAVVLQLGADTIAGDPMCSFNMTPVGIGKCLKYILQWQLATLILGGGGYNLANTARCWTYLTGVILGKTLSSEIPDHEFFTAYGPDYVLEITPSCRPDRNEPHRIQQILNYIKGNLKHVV
Description: In vitro enzymatic assay HDAC8 (Fluor de Lys). The note with it: average of at least 2 independent experiments in duplicates ± SEM. It is filed as biochemical.

The next series has as its target T3, HDAC4 (Homo sapiens, UniProt P56524).
T3 construct: purchased Sigma Aldrich or Reaction Biology Corporation
As to the kind of experiment: In vitro enzymatic assay HDAC4 (Fluor de Lys). The note with it: average of at least 2 independent experiments in duplicates ± SEM. It is filed as biochemical.

The nature of series [2]: Solubility remarks during testing. Type of series: physicochemical. The note with it: concentrations higher than 500 μM cannot be tested.
For series [3], the system named is class I HDACs (HeLa nuclear extracts). Description: HDAC activity of HeLa nuclear extracts (Fluor de Lys). It is filed as biochemical, human. The note with it: 100 μM, average of at least 3 independent experiments in duplicates (Table 1).

T3 sequence (P56524 whole entry): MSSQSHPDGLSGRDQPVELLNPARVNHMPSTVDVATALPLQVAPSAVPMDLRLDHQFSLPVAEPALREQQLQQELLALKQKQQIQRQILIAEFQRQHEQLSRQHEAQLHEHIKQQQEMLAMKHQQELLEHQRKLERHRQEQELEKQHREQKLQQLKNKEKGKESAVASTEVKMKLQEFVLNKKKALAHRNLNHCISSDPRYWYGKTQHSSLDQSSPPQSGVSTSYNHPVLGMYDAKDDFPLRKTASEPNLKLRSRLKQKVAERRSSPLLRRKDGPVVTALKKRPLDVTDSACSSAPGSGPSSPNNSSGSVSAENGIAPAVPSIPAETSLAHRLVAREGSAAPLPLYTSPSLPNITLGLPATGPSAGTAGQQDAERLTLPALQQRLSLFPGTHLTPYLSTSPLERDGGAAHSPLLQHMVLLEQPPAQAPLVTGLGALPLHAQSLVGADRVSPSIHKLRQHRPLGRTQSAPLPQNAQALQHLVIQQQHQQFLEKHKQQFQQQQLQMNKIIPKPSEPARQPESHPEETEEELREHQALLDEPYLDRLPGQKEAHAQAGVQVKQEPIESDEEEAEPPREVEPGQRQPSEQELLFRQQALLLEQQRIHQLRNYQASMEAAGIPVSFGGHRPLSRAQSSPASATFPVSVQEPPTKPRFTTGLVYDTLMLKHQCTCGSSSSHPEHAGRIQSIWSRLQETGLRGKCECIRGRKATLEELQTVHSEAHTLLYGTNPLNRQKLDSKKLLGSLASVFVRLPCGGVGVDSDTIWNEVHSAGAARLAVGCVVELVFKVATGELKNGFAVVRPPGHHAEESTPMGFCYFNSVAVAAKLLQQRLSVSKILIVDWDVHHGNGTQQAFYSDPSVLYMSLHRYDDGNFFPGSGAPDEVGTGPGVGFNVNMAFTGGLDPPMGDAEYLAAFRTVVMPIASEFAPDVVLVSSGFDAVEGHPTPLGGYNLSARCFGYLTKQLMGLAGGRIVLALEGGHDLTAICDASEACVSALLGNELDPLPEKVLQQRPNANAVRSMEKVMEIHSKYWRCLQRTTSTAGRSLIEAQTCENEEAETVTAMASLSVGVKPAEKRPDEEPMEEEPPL

For `NNC(=O)c1ccc(COc2ccccc2Cl)cc1` [AK-14], in series [1], the half-inhibitory concentration (IC50) at 72 h is 34.5 ± 4.8 µM. In addition, the concentration for half-maximal inhibition (IC50) against HDAC6 (average of at least 2 independent experiments in duplicates ± SEM) is 12.8 ± 5.4 µM; against HDAC8 it was over 300 µM; at HDAC4 it was over 300 µM. The inhibition at 100 µM at HDAC6 (read-out: HDAC6 % of inhibition at 100 µM) was found to be 70.7 ± 6%. The “solubility remark in HeLa cell assay” value in series [2] is reported as “solubility issues”. Further, the “HeLa % of inhibition at 100 μM” value in series [3] was determined as 2.7 ± 1.3%.
